SMILES strings stand for the structures.

The target in the test is T1, N-terminally GST-tagged human full length recombinant Mps-1 kinase (Homo sapiens, UniProt P33981).
T1 construct: N-terminally GST-tagged human full length recombinant Mps-1 kinase; purchased Invitrogen, Karslruhe, Germany PV4071
T1 sequence (P33981 1-857): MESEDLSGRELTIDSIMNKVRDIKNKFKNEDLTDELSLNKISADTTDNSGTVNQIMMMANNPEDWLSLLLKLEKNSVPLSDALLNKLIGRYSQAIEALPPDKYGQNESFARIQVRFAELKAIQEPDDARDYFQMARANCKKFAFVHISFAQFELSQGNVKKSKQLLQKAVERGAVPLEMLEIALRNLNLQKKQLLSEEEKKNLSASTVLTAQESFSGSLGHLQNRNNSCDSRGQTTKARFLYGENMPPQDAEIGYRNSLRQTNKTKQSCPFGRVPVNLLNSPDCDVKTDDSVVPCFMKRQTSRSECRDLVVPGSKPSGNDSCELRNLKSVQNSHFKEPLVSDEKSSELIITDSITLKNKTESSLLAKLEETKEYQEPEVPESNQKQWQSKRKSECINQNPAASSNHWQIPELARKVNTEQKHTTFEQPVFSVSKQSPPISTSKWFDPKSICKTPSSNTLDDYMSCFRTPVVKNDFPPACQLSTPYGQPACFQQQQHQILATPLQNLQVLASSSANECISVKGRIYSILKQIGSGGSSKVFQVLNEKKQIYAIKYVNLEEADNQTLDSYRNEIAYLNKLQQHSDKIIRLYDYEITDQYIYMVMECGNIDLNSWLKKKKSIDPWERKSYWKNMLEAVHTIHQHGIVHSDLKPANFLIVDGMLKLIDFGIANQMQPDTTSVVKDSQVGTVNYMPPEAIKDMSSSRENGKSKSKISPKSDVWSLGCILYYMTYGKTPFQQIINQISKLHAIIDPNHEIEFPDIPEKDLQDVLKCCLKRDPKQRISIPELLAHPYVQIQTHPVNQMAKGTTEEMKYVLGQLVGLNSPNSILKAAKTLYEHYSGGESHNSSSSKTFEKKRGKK
The experiment in a line: Mps-1 kinase assay (TR-FRET). It counts as biochemical. The conditions noted are these: Mps1 IC50 [nM], 10 μM ATP, 1 μM peptide substrate, 60 min at 22° C. As for the experimental part: The human kinase Mps-1 phosphorylates a biotinylated substrate peptide. Detection of the phosphorylated product is achieved by time-resolved fluorescence resonance energy transfer (TR-FRET) from Europium-labelled anti-phospho-Serine/Threonine antibody as donor to streptavidin labelled with cross-linked allophycocyanin (SA-XLent) as acceptor. Compounds are tested for their inhibition of the kinase activity.
N-terminally GST-tagged human full length recombinant Mps-1 kinase (purchased from Invitrogen, Karslruhe, Germany, cat. no PV4071) was used. As substrate for the kinase reaction a biotinylated peptide of the amino-acid sequence […] (C-terminus in amide form, purchased from Biosynthan GmbH, Berlin) was used.
The concentration of Mps-1 in the assay was adjusted to the activity of the enzyme lot and was chosen appropriate to have the assay in the linear range, typical enzyme concentrations were in the range of about 1 nM (final conc. in the 5 μl assay volume).
The resulting mixture was incubated 1 h at 22° C. to allow the binding of the phosphorylated peptide to the anti-phospho(Ser/Thr)-Europium-antibody. Subsequently the amount of phosphorylated substrate was evaluated by measurement of the resonance energy transfer from the Europium-labelled anti-phospho(Ser/Thr) antibody to the Streptavidin-XLent.
Take `Cc1cc(-c2cnc3c(NCCCC(C)O)cc(-c4ccccc4CO)nn23)ccc1C(=O)NC1CC1` (racemic) [Example 342, (RS)-N-cyclopropyl-4-{6-[2-(hydroxy-methyl)phenyl]-8-[(4-hydroxy-pentyl)amino]imidazo[1,2-b]pyridazin-3-yl}-2-methylbenzamide]: the IC50 was determined as 6.9 nM.

Consider `Cc1cc(-c2cnc3c(NCCC(C)CO)cc(-c4ccccc4CO)nn23)ccc1C(=O)NC1CC1` (racemic) [Example 343, (RS)-N-cyclopropyl-4-{8-[(4-hydroxy-3-methylbutyl)amino]-6-[2-(hydroxymethyl)phenyl]imidazo [1,2-b]pyridazin-3-yl}-2-methyl-benzamide], for which the half-inhibitory concentration (IC50) came out at 4.3 nM.

Consider `Cc1cc(-c2cnc3c(NCC4CCOC4)cc(-c4ccccc4CO)nn23)ccc1C(=O)NC1CC1` (racemic) [Example 345, (RS)-N-cyclopropyl-4-{6-[2-(hydroxy-methyl)phenyl]-8-[(tetrahydro-furan-3-ylmethyl)amino]imidazo [1,2-b]pyridazin-3-yl}-2-methyl-benzamide], for which the IC50 came out at 3 nM.

In the case of `CC(C)CNc1cc(-c2ccncc2)nn2c(-c3ccc(-c4cnc(C5CC5)[nH]4)cc3)cnc12` [Example 3, 3-[4-(2-Cyclopropyl-1H-imidazol-5-yl)phenyl]-N-isobutyl-6-(pyridin-4-yl) imidazo[1,2-b]pyridazin-8-amine], the IC50 was found to be 13.7 nM.

Consider `c1cc(-c2cc(NC[C@@H]3CCCO3)c3ncc(-c4ccc(-c5cnc(C6CC6)[nH]5)cc4)n3n2)ccn1` [Example 4, 3-[4-(2-Cyclopropyl-1H-imidazol-5-yl)phenyl]-6-(pyridin-4-yl)-N-[(2S)-tetrahydrofuran-2-ylmethyl]imidazo[1,2-b]pyridazin-8-amine], for which the IC50 came out at 20.6 nM.

With `c1cc(-c2cc(NC[C@H]3CCCO3)c3ncc(-c4ccc(-c5cnc(C6CC6)[nH]5)cc4)n3n2)ccn1` [Example 5, 3-[4-(2-Cyclopropyl-1H-imidazol-5-yl)phenyl]-6-(pyridin-4-yl)-N-[(2R)-tetrahydrofuran-2-ylmethyl]imidazo[1,2-b]pyridazin-8-amine], the IC50 worked out at 13.3 nM.

Turning to `Fc1ccc(-c2cc(NCCC(F)(F)F)c3ncc(-c4ccc(-c5cnc(C6CC6)[nH]5)cc4)n3n2)cc1` [Example 6, 3-[4-(2-Cyclopropyl-1H-imidazol-5-yl)phenyl]-6-(4-fluorophenyl)-N-(3,3,3-trifluoropropyl)imidazo[1,2-b]pyridazin-8-amine], the IC50 was found to be 43.6 nM.

Consider `Cc1cc(-c2cnc3c(NCC(C)(C)O)cc(-c4ccc(F)cc4)nn23)ccc1C(=O)NC1CC1` [Example 7, N-cyclopropyl-4-{6-(4-fluorophenyl)-8-[(2-hydroxy-2-methylpropyl)amino]imidazo[1,2-b]pyridazin-3-yl}-2-methylbenzamide], for which the IC50 is 1.2 nM.

For `CC(C)(O)CNc1cc(-c2ccc(F)cc2)nn2c(-c3ccc(-c4cnc(C5CC5)[nH]4)cc3)cnc12` [Example 8, 1-({3-[4-(2-Cyclopropyl-1H-imidazol-5-yl)phenyl]-6-(4-fluorophenyl)imidazo[1,2-b]pyridazin-8-yl}amino)-2-methylpropan-2-ol], the IC50 was found to be 111 nM.

On to `CC(C)(O)CNc1cc(-c2ccncc2)nn2c(-c3ccc(-c4cnc(C5CC5)[nH]4)cc3)cnc12` [Example 9, 1-({3-[4-(2-Cyclopropyl-1H-imidazol-5-yl)phenyl]-6-(pyridin-4-yl)imidazo[1,2-b]pyridazin-8-yl}amino)-2-methylpropan-2-ol], for which the IC50 is 25 nM.

For the compound `Cc1cc(-c2cnc3c(NCCC(F)(F)F)cc(-c4ccnn4C)nn23)ccc1C(=O)NC1CC1` [Example 10, N-cyclopropyl-2-methyl-4-{6-(1-methyl-1H-pyrazol-5-yl)-8-[(3,3,3-trifluoropropyl)amino]imidazo[1,2-b]pyridazin-3-yl}benzamide], the IC50 was less than 1 nM.

Regarding `CC(C)CNc1cc(-c2ccccc2)nn2c(-c3ccc4c(N)n[nH]c4c3)cnc12` [Example 11, 3-(3-Amino-1H-indazol-6-yl)-N-isobutyl-6-phenylimidazo[1,2-b]pyridazin-8-amine], the IC50 is 2.4 nM.

Consider `Cc1cc(-c2cnc3c(NCC(C)(C)O)cc(-c4ccccc4)nn23)ccc1C(=O)NC1CC1` [Example 12, N-cyclopropyl-4-{8-[(2-hydroxy-2-methylpropyl)amino]-6-phenylimidazo[1,2-b]pyridazin-3-yl}-2-methylbenzamide], for which the IC50 stood at 3.2 nM.

Turning to `CC(C)CNc1cc(-c2ccncc2)nn2c(-c3ccc(C(=S)NC4CC4)cc3)cnc12` [Example 13, N-cyclopropyl-4-[8-(isobutylamino)-6-(pyridin-4-yl)imidazo[1,2-b]pyridazin-3-yl]benzenecarbothioamide], the IC50 stood at 1.8 nM.

As for `CC(C)(O)CNc1cc(-c2ccccc2)nn2c(-c3ccc(C(=O)NC4CC4)cc3)cnc12` [Example 14, N-cyclopropyl-4-{8-[(2-hydroxy-2-methylpropyl)amino]-6-phenylimidazo[1,2-b]pyridazin-3-yl}benzamide], the IC50 was determined as 1.2 nM.

`CSc1cc(NCC(C)(C)O)c2ncc(-c3ccc(C(=O)NC4CC4)c(C)c3)n2n1` [Example 15, N-cyclopropyl-4-{8-[(2-hydroxy-2-methylpropyl)amino]-6-(methylsulfanyl)imidazo[1,2-b]pyridazin-3-yl}-2-methylbenzamide]: the IC50 was determined as 21.5 nM.

As to `C/C=C/c1cc(NCCC(F)(F)F)c2ncc(-c3ccc(-c4cnc(C5CC5)[nH]4)cc3)n2n1` [Example 16, 3-[4-(2-Cyclopropyl-1H-imidazol-5-yl)phenyl]-6-[(1E)-prop-1-en-1-yl]-N-(3,3,3-trifluoropropyl)imidazo[1,2-b]pyridazin-8-amine], the IC50 is 27.3 nM.

`COC(C)(C)CNc1cc(-c2ccncc2)nn2c(-c3ccc(C(=O)NC4CC4)c(C)c3)cnc12` [Example 17, N-cyclopropyl-4-{8-[(2-methoxy-2-methylpropyl)amino]-6-(pyridin-4-yl)imidazo[1,2-b]pyridazin-3-yl}-2-methylbenzamide]: the IC50 was 3.2 nM.

Regarding `Cc1cc(-c2cnc3c(NCC(C)(C)O)cc(S(C)(=O)=O)nn23)ccc1C(=O)NC1CC1` [Example 18, N-cyclopropyl-4-{8-[(2-hydroxy-2-methylpropyl)amino]-6-(methylsulfonyl)imidazo[1,2-b]pyridazin-3-yl}-2-methylbenzamide], the IC50 came to 228 nM.

`CC(C)(O)CNc1cc(-c2ccc(F)cc2)nn2c(-c3ccc(C(=O)NC4CC4)cc3)cnc12` [Example 19, N-cyclopropyl-4-{6-(4-fluorophenyl)-8-[(2-hydroxy-2-methylpropyl)amino]imidazo[1,2-b]pyridazin-3-yl}benzamide]: the IC50 came to 1.6 nM.

On to `Cc1cc(-c2cnc3c(NCCC(F)(F)F)cc(-c4ccccc4CO)nn23)ccc1C(=O)NC1CC1` [Example 20, N-cyclopropyl-4-{6-[2-(hydroxymethyl)phenyl]-8-[(3,3,3-trifluoropropyl)amino]imidazo[1,2-b]pyridazin-3-yl}-2-methylbenzamide], for which the 50% inhibitory concentration (IC50) was determined as 1.2 nM.

On to `Cc1cc(-c2cnc3c(NCC(C)(C)O)cc(-c4ccnn4C)nn23)ccc1C(=O)NC1CC1` [Example 21, N-cyclopropyl-4-{8-[(2-hydroxy-2-methylpropyl)amino]-6-(1-methyl-1H-pyrazol-5-yl)imidazo[1,2-b]pyridazin-3-yl}-2-methylbenzamide], for which the IC50 was 3.7 nM.

On to `C=Cc1cc(NCCC(F)(F)F)c2ncc(-c3ccc(-c4cnc(C5CC5)[nH]4)cc3)n2n1` [Example 22, 3-[4-(2-Cyclopropyl-1H-imidazol-5-yl)phenyl]-6-ethenyl-N-(3,3,3-trifluoropropyl)imidazo[1,2-b]pyridazin-8-amine], for which the 50% inhibitory concentration (IC50) came out at 35.7 nM.

As for `C/C=C(\C)c1cc(NCC(C)(C)O)c2ncc(-c3ccc(C(=O)NC4CC4)c(C)c3)n2n1` [Example 25, 4-{6-[(2E)-But-2-en-2-yl]-8-[(2-hydroxy-2-methylpropyl)amino]imidazo[1,2-b]pyridazin-3-yl}-N-cyclopropyl-2-methylbenzamide], the IC50 came to 13.1 nM.

As a reminder, the IC50 is the point on the concentration scale where inhibition reaches its midpoint.

The values above are taken from US9255100B2 (BAYER INTELLECTUAL PROPERTY GMBH, priority 2010, dated 2016).
